Entries after “also recorded” stand apart in the source; their conditions may differ.
How the values were obtained:
rats = assay: Forced swimming test (animal model of depression); assay type: in vivo
Method: A typical animal model of depression is the “forced swimming test” (R. D. Porsolt et al., Nature 1977; 266(5604): 730-732), which is carried out with rats. This model is based on the behaviour known as “behavioural despair”, which the animals show in a hopeless situation known to them: If the rats are placed in a water-filled vessel (usually for 15 minutes) from which they cannot escape, they cease their attempts to escape from the situation after a certain time and remain in immobility or make only the most necessary swimming movements. If the rats are subjected to this situation again the next day, they recognise the hopelessness of the situation and remain in immobility for the majority of the time, and the time which the animals spend in immobility (which is regarded as surrogate for depression) during the 5-minute test duration serves as a measure of the depression. Anti-depressants shorten this immobility time. Fluoxetine (5 mg/kg perorally) and 2-BFI (3 and 10 mg/kg perorally) are administered—individually or combined—either in accordance with a repeated acute scheme (fluoxetine 24 h, 5 h and 2 h; 2-BFI 24 h, 5 h and 1 h before commencement of the test) or in accordance with a subchronic scheme (fluoxetine or 2-BFI once daily for 7 days, on the final day fluoxetine 2 h and 2-BFI 1 h before commencement of the test).

mice = assay: Marble burying test (animal model of anxiety states); assay type: in vivo; conditions: 3 mg/kg subcutaneously each substance, individually or combined at the same dose; 30 minutes test; FIG. 3
Method: A typical animal model of anxiety states is the “marble burying test” (for example Njung'e and Handley, Br J Pharmacol 1991, 104: 105-112), which has, in particular, specificity for obsessive-compulsive disorders and obsessive-compulsive spectrum disorders. The experimental device consists of a cube-shaped box open at the top in which 25 clear glass marbles are arranged at uniform separations on a 5 cm deep layer of sawdust. Mice are placed individually in the test box for 30 minutes. The number of marbles buried in the sawdust during the test duration of 30 minutes serves as a measure of anxiety. Untreated mice bury the most marbles in the sawdust, anxiolytics reduce the number of buried marbles.

[1] = system: extracellular 5-HT level in the frontal cortex; assay: Microdialysis studies: extracellular 5-HT level in the frontal cortex of rats; assay type: in vivo
[2] = system: extracellular level of serotonin (5-HT) in the brain; conditions: fluoxetine alone, even at a relatively high dose; literature (Artigas et al.); cited from earlier work

Row | Structure (SMILES) | immobility phase (rats; repeated acute scheme, 2-BFI alone 3 and 10 mg/kg perorally, 24 h, 5 h and 1 h before test, FIG. 4) | immobility phase (rats; subchronic scheme, once daily for 7 days, 2-BFI alone 3 and 10 mg/kg perorally, FIG. 5) | number of buried marbles compared with vehicle-treated mice (mice) | effect on the extracellular 5-HT level in the frontal cortex ([1]; 2-BFI alone, 20 mg/kg subcutaneously, FIG. 1) | immobility phase (rats; repeated acute scheme, fluoxetine alone 5 mg/kg perorally, 24 h, 5 h and 2 h before test, FIG. 4) | immobility phase (rats; subchronic scheme, once daily for 7 days, fluoxetine alone 5 mg/kg perorally, FIG. 5) | approximately three-fold increase of the extracellular 5-HT level [2] | effect on the extracellular 5-HT level ([1]; fluoxetine alone, 10 mg/kg intraperitoneally, FIG. 2, 10 mg/kg)
1 | c1ccc2oc(C3=NCCN3)cc2c1 [2-BFI, 2-(2-benzofuranyl)-2-imidazoline] | does not reduce the immobility phase | Virtually identical effects | reduced the number of buried marbles only slightly | no effect |  |  |  | 
2 | CNCCC(Oc1ccc(C(F)(F)F)cc1)c1ccccc1 (stereo not drawn) [fluoxetine] |  |  | reduced the number of buried marbles only slightly |  | only a negligible effect | Virtually identical effects | cannot be achieved | slightly raises; also recorded: only a slight increase

— patent US20080027140A1, “Combinations of Serotonin Reuptake Inhibitors and Imidazoline I 2 Agonists” (MERCK PATENT GMBH, priority 2004, published 2008)
